Laboratory results taken from paper PMC10092094 (Chemmedchem, 2022).
“Also recorded” adds a separate entry of the source.

How the values were obtained:
OGG1 [1] = target: T1, OGG1 (Homo sapiens, UniProt O15527); test: biochemical
OGG1 [2] = target: T1, OGG1; test: Differential scanning fluorimetry; assay type: binding
[3] = IC50 (CI95), biochemical inhibition, confidence interval 95 in parentheses
[4] = confidence interval 95 in parentheses

T1 sequence (O15527 whole entry): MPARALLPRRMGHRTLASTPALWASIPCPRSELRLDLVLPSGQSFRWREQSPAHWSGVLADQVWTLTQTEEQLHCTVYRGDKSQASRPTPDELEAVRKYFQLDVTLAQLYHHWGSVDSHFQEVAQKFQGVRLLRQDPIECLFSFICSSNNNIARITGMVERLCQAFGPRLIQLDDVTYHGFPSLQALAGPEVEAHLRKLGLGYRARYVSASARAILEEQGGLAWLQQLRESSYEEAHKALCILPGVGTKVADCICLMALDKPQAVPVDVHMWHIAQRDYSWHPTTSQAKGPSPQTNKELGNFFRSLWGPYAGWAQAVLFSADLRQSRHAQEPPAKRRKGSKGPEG

Row | DSF stabilization (ΔT) (OGG1 [2]) | IC50 (OGG1 [1]; [3]) | SMILES | other results
1 | 4.1 K | – | O=C(Nc1ccc(Br)cc1)N1CCC(n2c(=O)[nH]c3cc(Cl)ccc32)CC1 [Compound 17, 4‐(5‐chloro‐2‐oxo‐2,3‐dihydro‐1H‐1,3‐benzodiazol‐1‐yl)‐N‐(4‐bromophenyl)piperidine‐1‐carboxamide] | IC50 (OGG1 [1]; IC50, biochemical inhibition, single replicate): 1.6 µM
2 | 3.8 K | 1.7 µM | Cc1ccc2c(c1)[nH]c(=O)n2C1CCN(C(=O)Nc2ccc(I)cc2)CC1 [Compound 21, 4‐(5‐methyl‐2‐oxo‐2,3‐dihydro‐1H‐1,3‐benzodiazol‐1‐yl)‐N‐(4‐iodophenyl)piperidine‐1‐carboxamide] | –
3 | 3.1 K | – | O=C(Nc1ccc(Cl)c(Cl)c1)N1CCC(n2c(=O)[nH]c3cc(Cl)ccc32)CC1 [Compound 19, 4‐(5‐chloro‐2‐oxo‐2,3‐dihydro‐1H‐1,3‐benzodiazol‐1‐yl)‐N‐(3,4‐dichlorophenyl)piperidine‐1‐carboxamide] | –
4 | 4.6 K | 5.5 µM | O=C(Nc1ccc(Cl)cc1)N1CCC(n2c(=O)[nH]c3ccccc32)CC1 [Compound 6, N‐(4‐chlorophenyl)‐4‐(2‐oxo‐2,3‐dihydro‐1H‐1,3‐benzodiazol‐1‐yl)piperidine‐1‐carboxamide] | IC50 (OGG1 [1]; IC50 of HTS hit, concentration-response of screening hits): 10 µM
5 | 2.4 K | 35.1 µM | O=C(Nc1cccc(F)c1)N1CCC(n2c(=O)[nH]c3cc(Cl)ccc32)CC1 [Compound 12, 4‐(5‐chloro‐2‐oxo‐2,3‐dihydro‐1H‐1,3‐benzodiazol‐1‐yl)‐N‐(3‐fluorophenyl)piperidine‐1‐carboxamide] | –
6 | 3.3 K | – | O=C(Nc1ccccc1)N1CCC(n2c(=O)[nH]c3cc(Cl)ccc32)CC1 [Compound 11, 4‐(5‐chloro‐2‐oxo‐2,3‐dihydro‐1H‐1,3‐benzodiazol‐1‐yl)‐N‐phenylpiperidine‐1‐carboxamide] | –
7 | 3.1 K | 19.9 µM | Cc1ccc(NC(=O)N2CCC(n3c(=O)[nH]c4ccccc43)CC2)cc1 [Compound 4, N‐(4‐methylphenyl)‐4‐(2‐oxo‐2,3‐dihydro‐1H‐1,3‐benzodiazol‐1‐yl)piperidine‐1‐carboxamide] | –
8 | 3.8 K | 2 µM | O=C(Nc1ccc(Cl)cc1)N1CCC(n2c(=O)[nH]c3cc(Cl)ccc32)CC1 [Compound 16, 4‐(5‐chloro‐2‐oxo‐2,3‐dihydro‐1H‐1,3‐benzodiazol‐1‐yl)‐N‐(4‐chlorophenyl)piperidine‐1‐carboxamide] | –
9 | 2.4 K | 2.9 µM | O=C(Nc1ccc(I)cc1)N1CCC(n2c(=O)[nH]c3ccccc32)CC1 [Compound 8, N‐(4‐iodophenyl)‐4‐(2‐oxo‐2,3‐dihydro‐1H‐1,3‐benzodiazol‐1‐yl)piperidine‐1‐carboxamide] | –
10 | 1.6 K | – | O=C(Nc1ccc(I)cc1)N1CCC(n2c(=O)[nH]c3cc(Cl)ccc32)CC1 [Compound 18, 4‐(5‐chloro‐2‐oxo‐2,3‐dihydro‐1H‐1,3‐benzodiazol‐1‐yl)‐N‐(4‐iodophenyl)piperidine‐1‐carboxamide] | –

The remaining lines, values behind:

Row | SMILES | DSF stabilization (ΔT) (OGG1 [2]) | IC50 (OGG1 [1]; [3]) | other results
11 | O=C(Nc1ccc(C(F)(F)F)cc1)N1CCC(n2c(=O)[nH]c3c(Br)cccc32)CC1 [Compound 49, 4‐(4‐bromo‐2‐oxo‐2,3‐dihydro‐1H‐1,3‐benzodiazol‐1‐yl)‐N‐[4‐(trifluoromethyl)phenyl]piperidine‐1‐carboxamide] | 1.6 K | 1.6 µM | –
12 | COc1cc(NC(=O)N2CCC(n3c(=O)[nH]c4c(Br)cccc43)CC2)ccc1Cl [Compound 54, 4‐(4‐bromo‐2‐oxo‐2,3‐dihydro‐1H‐1,3‐benzodiazol‐1‐yl)‐N‐(4‐chloro‐3‐methoxyphenyl)piperidine‐1‐carboxamide] | 1.9 K | 0.3 µM | –
13 | O=C(Cc1ccc(I)cc1)N1CCC(n2c(=O)[nH]c3c(Br)cccc32)CC1 [Compound 30, 4‐bromo‐1‐{1‐[2‐(4‐iodophenyl)acetyl]piperidin‐4‐yl}‐2,3‐dihydro‐1H‐1,3‐benzodiazol‐2‐one] | – | – | Activity against OGG1 (in words) (OGG1 [1]): no or a very low activity
14 | O=C(Nc1ccc(I)cc1)N1CCC(n2c(=O)[nH]c3c(F)cccc32)CC1 [Compound 24, 4‐(4‐fluoro‐2‐oxo‐2,3‐dihydro‐1H‐1,3‐benzodiazol‐1‐yl)‐N‐(4‐iodophenyl)piperidine‐1‐carboxamide] | 3.9 K | 2.2 µM | –
15 | O=C(NC1CCCCC1)N1CCC(n2c(=O)[nH]c3c(Br)cccc32)CC1 [Compound 32, 4‐(4‐bromo‐2‐oxo‐2,3‐dihydro‐1H‐1,3‐benzodiazol‐1‐yl)‐N‐cyclohexylpiperidine‐1‐carboxamide] | – | – | Activity against OGG1 (in words) (OGG1 [1]): only weakly active
16 | Cc1ccc2[nH]c(=O)n(C3CCN(C(=O)Nc4ccc(I)cc4)CC3)c2c1 [Compound 22, 4‐(6‐methyl‐2‐oxo‐2,3‐dihydro‐1H‐1,3‐benzodiazol‐1‐yl)‐N‐(4‐iodophenyl)piperidine‐1‐carboxamide] | – | – | IC50 (CI95), biochemical inhibition (OGG1 [1]; [4]): inactivity; also recorded: no effect
17 | O=C(Nc1ccc(Cl)c(Cl)c1)N1CCC(n2c(=O)[nH]c3c(Br)cccc32)CC1 [Compound 53, 4‐(4‐bromo‐2‐oxo‐2,3‐dihydro‐1H‐1,3‐benzodiazol‐1‐yl)‐N‐(3,4‐dichlorophenyl)piperidine‐1‐carboxamide] | 3.1 K | 0.44 µM | –
18 | O=C(Nc1ccc(I)cc1)N1CCC(n2c(=O)oc3c(Br)cccc32)CC1 [Compound 42, 4‐(7‐bromo‐2‐oxo‐2,3‐dihydro‐1,3‐benzoxazol‐3‐yl)‐N‐(4‐iodophenyl)piperidine‐1‐carboxamide] | – | – | Activity against OGG1 (in words) (OGG1 [1]): neither of which had a pronounced effect on inhibiting or stabilizing OGG1
19 | COc1cc(NC(=O)N2CCC(n3c(=O)[nH]c4c(OC)cccc43)CC2)ccc1C [TH9525, 4‐(4‐methoxy‐2‐oxo‐2,3‐dihydro‐1H‐1,3‐benzodiazol‐1‐yl)‐N‐(3‐methoxy‐4‐methylphenyl)piperidine‐1‐carboxamide] | – | 2 µM | –
20 | COc1cccc2c1[nH]c(=O)n2C1CCN(C(=O)Nc2ccc(I)cc2)CC1 [Compound 27, 4‐(4‐methoxy‐2‐oxo‐2,3‐dihydro‐1H‐1,3‐benzodiazol‐1‐yl)‐N‐(4‐iodophenyl)piperidine‐1‐carboxamide] | 4.2 K | 0.91 µM | –
21 | Cc1ccc(NC(=O)N2CCC(n3c(=O)[nH]c4c(Br)cccc43)CC2)cc1 [Compound 45, 4‐(4‐bromo‐2‐oxo‐2,3‐dihydro‐1H‐1,3‐benzodiazol‐1‐yl)‐N‐(4‐methylphenyl)piperidine‐1‐carboxamide] | 5.1 K | 2.1 µM | –
22 | CCOC(=O)c1ccc(NC(=O)N2CCC(n3c(=O)[nH]c4c(Br)cccc43)CC2)cc1 [Compound 50, Ethyl‐4‐{[4‐(4‐bromo‐2‐oxo‐2,3‐dihydro‐1H‐1,3‐benzodiazol‐1‐yl)‐piperidine‐1‐carbonyl]‐amino}‐benzoate] | – | – | IC50 (CI95), biochemical inhibition (OGG1 [1]; [4]): no effect
23 | CN(C)c1ccc(NC(=O)N2CCC(n3c(=O)[nH]c4c(Br)cccc43)CC2)cc1 [Compound 52, 4‐(4‐bromo‐2‐oxo‐2,3‐dihydro‐1H‐1,3‐benzodiazol‐1‐yl)‐N‐[4‐(dimethylamino)phenyl]piperidine‐1‐carboxamide] | – | 32.2 µM | –
24 | CC(C)(C)c1ccc(NC(=O)N2CCC(n3c(=O)[nH]c4c(Br)cccc43)CC2)cc1 [Compound 46, 4‐(4‐bromo‐2‐oxo‐2,3‐dihydro‐1H‐1,3‐benzodiazol‐1‐yl)‐N‐(4‐tert‐butylphenyl)piperidine‐1‐carboxamide] | 0.0 K | 46 µM | –
25 | O=C(c1ccc(I)cc1)N1CCC(n2c(=O)[nH]c3c(Br)cccc32)CC1 [Compound 33, 4‐bromo‐1‐[1‐(4‐iodobenzoyl)piperidin‐4‐yl]‐2,3‐dihydro‐1H‐1,3‐benzodiazol‐2‐one] | – | – | Activity against OGG1 (in words) (OGG1 [1]): no or a very low activity
26 | O=C(Oc1ccc(Cl)cc1)N1CCC(n2c(=O)[nH]c3c(Br)cccc32)CC1 [Compound 31, 4‐chlorophenyl 4‐(4‐bromo‐2‐oxo‐2,3‐dihydro‐1H‐1,3‐benzodiazol‐1‐yl)piperidine‐1‐carboxylate] | – | – | Activity against OGG1 (in words) (OGG1 [1]): no or a very low activity
27 | O=C(Nc1ccc(F)cc1)N1CCC(n2c(=O)[nH]c3cc(Cl)ccc32)CC1 [Compound 15, 4‐(5‐chloro‐2‐oxo‐2,3‐dihydro‐1H‐1,3‐benzodiazol‐1‐yl)‐N‐(4‐fluorophenyl)piperidine‐1‐carboxamide] | – | – | IC50 (CI95), biochemical inhibition (OGG1 [1]; [4]): no effect
28 | CN(C(=O)N1CCC(n2c(=O)[nH]c3c(Br)cccc32)CC1)c1ccc(Cl)c(Cl)c1 [Compound 29, 4‐(4‐bromo‐2‐oxo‐2,3‐dihydro‐1H‐1,3‐benzodiazol‐1‐yl)‐N‐(3,4‐dichlorophenyl)‐N‐methylpiperidine‐1‐carboxamide] | – | – | Activity against OGG1 (in words) (OGG1 [1]): no or a very low activity
29 | O=C(Nc1ccc([N+](=O)[O-])cc1)N1CCC(n2c(=O)[nH]c3c(Br)cccc32)CC1 [Compound 48, 4‐(4‐bromo‐2‐oxo‐2,3‐dihydro‐1H‐1,3‐benzodiazol‐1‐yl)‐N‐(4‐nitrophenyl)piperidine‐1‐carboxamide] | – | – | IC50 (CI95), biochemical inhibition (OGG1 [1]; [4]): no effect
30 | O=C(Nc1ccc(I)cc1)N1CCC(n2cnc3c(Br)cccc32)CC1 [Compound 41, 4‐(4‐bromo‐1H‐1,3‐benzodiazol‐1‐yl)‐N‐(4‐iodophenyl)piperidine‐1‐carboxamide] | – | – | Activity against OGG1 (in words) (OGG1 [1]): neither of which had a pronounced effect on inhibiting or stabilizing OGG1
31 | CC(=O)Nc1ccc(NC(=O)N2CCC(n3c(=O)[nH]c4c(Br)cccc43)CC2)cc1 [Compound 51, 4‐(4‐bromo‐2‐oxo‐2,3‐dihydro‐1H‐1,3‐benzodiazol‐1‐yl)‐N‐(4‐acetamidophenyl)piperidine‐1‐carboxamide] | – | – | IC50 (CI95), biochemical inhibition (OGG1 [1]; [4]): no effect
32 | O=c1[nH]c2c(Br)cccc2n1C1CCN(S(=O)(=O)c2ccc(I)cc2)CC1 [Compound 34, 4‐bromo‐1‐[1‐(4‐iodobenzenesulfonyl)piperidin‐4‐yl]‐2,3‐dihydro‐1H‐1,3‐benzodiazol‐2‐one] | – | – | Activity against OGG1 (in words) (OGG1 [1]): no or a very low activity
33 | COc1ncc(NC(=O)N2CCC(n3c(=O)[nH]c4c(Br)cccc43)CC2)cc1C [Compound 35, 4‐(4‐bromo‐2‐oxo‐2,3‐dihydro‐1H‐1,3‐benzodiazol‐1‐yl)‐N‐(6‐methoxy‐5‐methylpyridin‐3‐yl)piperidine‐1‐carboxamide] | – | – | Activity against OGG1 (in words) (OGG1 [1]): only weakly active
